PMC12238850, “Molecular determinants for recognition of serotonylated chromatin” (Nucleic Acids Research, 2025)
Like-named read-outs stand apart in the source and are kept apart here. Values belong to the molecule of their own block, whether it stands above or below them.

Legend:
[1] = target: T1, Taf3-PHD (residues 857–924) (Mus musculus, UniProt Q5HZG4); assay: NMR titration line shape analysis (TITAN), wild-type Taf3-PHD; type: binding
T1 construct: PHD finger of Taf3 (residues 857–924) in NMR buffer; GST (N, cleaved yes); made in house; host or cells: E. coli BL21(DE3), M9 minimal medium (13C/15N)
T1 sequence (Q5HZG4 857-924): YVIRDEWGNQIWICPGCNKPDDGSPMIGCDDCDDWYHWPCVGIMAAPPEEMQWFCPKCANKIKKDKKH
Procedure: The ^13C- and ^15N-labelled Taf3-PHD NMR samples were purified as described above, with minor differences. A single colony of freshly transformed BL21(DE3) E. coli was grown in a synthetic M9 minimal medium (6.0 g/l Na2HPO4·2H2O, 3.0 g/l KH2PO4, 0.5 g/l NaCl, 25 mg/l MgSO4, 290 μg/l CaCl2, 1 μg/l FeSO4·7H2O, 270 μg/l ZnCl2, and 5 mg/l thiamine) containing 2.0 g/l ^13C-glucose as the only carbon source and 0.5 g/l ^15NH4Cl as the sole nitrogen source. Protein expression, lysis, and loading to Glutathione Sepharose™ column were performed as described above. The GST-tag was removed through on-column thrombin digestion by loading excess thrombin (SERVA) in wash buffer followed by overnight digestion at 4°C. The cleaved PHD moiety with a […] N-terminal extension (Gly–Ser–His–Met–Ala–Met–Ala) remaining from the thrombin cleavage site was collected from the flow-through and further purified in a Mono Q™ 10/100 GL as before and subsequently loaded to a Superdex-75 HiLoad 16/600 gel filtration column in NMR buffer (20 mM KPi, pH 7.0, 150 mM KCl, 10 μM ZnCl2) (Supplementary Fig. S1).
All data were recorded at 298 K on a Bruker Avance III HD 900 MHz spectrometer equipped with a cryoprobe, unless noted otherwise. Sample for assignment verification contained 0.3 mM ^13C- and ^15N-labelled PHD finger of Taf3 (residues 857–924) in NMR buffer (20 mM KPi, pH 7.0, 150 mM KCl, 10 μM ZnCl2, 0.01% NaN3, 10% D2O) in a 5-mm NMR tube. Samples for peptide interaction studies contained 0.19 mM ^13C- and ^15N-labelled PHD in NMR buffer in 3-mm NMR tubes. Lyophilized peptides were dissolved in NMR buffer including 1 mM sodium 3-(trimethylsilyl)tetradeuteriopropanionate (TSP) into 20 mM stock solutions. Upon dilution to 1 mM, all peptide solutions were at pH 7.0 in NMR buffer. Peptide concentrations were determined by comparing the integral of the Thr methyl signal (from T3, T6, and T11, total nine protons) to that of TSP using a quantitative 1D experiment (recycle delay 60 s) recorded at a Bruker Avance III 600 MHz spectrometer. Saturated complexes with H3K4me1/H3K4me2/H3K4me3 peptides with and without H3Q5ser were made by adding peptide to a 0.7 mM final concentration (3.6 equiv.). […] Additional samples were prepared using 30%, 50%, 80%, and 160% equiv. of peptide. All spectra were recorded and processed using Bruker Topspin and analysed using NMR-FAM Sparky and Poky.
For the H3K4me2 complexes, the resonance of G879 was excluded due to overlap and that of K875 was included. Spectra were processed using NMRPipe using exponential line broadening of 10/15 Hz in the direct/indirect dimension of the free induction decay before Fourier transform. Data were fit against a 1:1 binding model that also optimizes the ligand concentration to compensate for concentration errors. Fitting assumed an HSQC experiment using 1.2 ms for the first zz-filter delays and an additional 0.6 ms evolution at the start and end of t1 that accommodated the echo/anti-echo gradient. The average koff value and standard error from a bootstrap analysis based on 100 replicas are reported. The 95% confidence limits were estimated using a grid search fixing koff allowing for an ∼3% increase in the final residuals as based on the F-statistic given the degrees of freedom. For each koff value, the KD for the H3K4me3 peptide was restrained to fall within 100 and 400 nM to enforce compatibility to previous reported affinity to avoid unrealistically high fitted KD values at higher koff values. Of note, the quality of the fit at the confidence limit edges is visibly worse than the best fit, particularly for the high koff side. For the H3K4me3Q5ser peptide, no restraint on KD was necessary. For the H3K4me2 peptides, the KD was restrained to 5 μM maximum. Without these upper bounds for KD, slightly wider confidence limits for koff are found.

[2] = test system: TFIID; assay: Histone peptide pull-down qMS, HeLa nuclear extract; type: binding, HeLa cells; details: biotinylated H3 (1–13) peptides, overnight at 4°C, 300 mM NaCl, pH 7.9, qMS, FDR 0.1
Procedure: (§1) Nuclear extracts of HeLa cells were prepared using a modified version of the Dignam procedure. Cytosolic and nuclear separation was validated by immunoblot using the following antibodies: for TBP the 20C7 in house mouse monoclonal and for Tubulin the DM1A monoclonal from Calbiochem (CP06) (Supplementary Fig. S5A). Biotinylated H3 (1–13) peptides immobilized on Dynabeads™ M-280 Streptavidin (Invitrogen) were incubated on a rotating wheel with 1 mg of HeLa nuclear extract overnight at 4°C in binding buffer [20 mM HEPES–KOH, pH 7.9, 300 mM NaCl, 20% glycerol, 2 mM MgCl2, 0.2 mM ethylenediaminetetraacetic acid, 0.1% NP-40, 0.5 mM DTT, and 1× cOmplete™ Protease Inhibitor Cocktail (Roche)]. The beads were then washed two times with binding buffer containing 0.5% NP-40, two times with phosphate buffered saline (PBS) containing 0.5% NP-40, and two times with plain PBS. On-bead digestion of bound proteins was performed overnight at 22°C with 0.1 μg/ml of trypsin in elution buffer (100 mM Tris–HCl, pH 7.5, 2 M urea, 10 mM DTT). […] A third of the final elution was analysed as described in [44, 45] with minor changes. For nanoflow-HPLC–MS/MS samples were analysed on an Orbitrap Fusion Lumos mass spectrometer coupled to an Easy nano-LC 1200 HPLC (Thermo Fisher Scientific). […]

[3] = target: TAF3-PHD; details: read-out: expected dissociation constant (KD); cited from earlier work
Procedure: An important link between H3K4me3 and pol II is formed by the basal transcription factor TFIID [[32], [35–37]]. TFIID is able to engage with active promoters by DNA contacts as well as by two histone-binding domains: the double bromodomains of TAF1 engaging acylated histones and the TAF3-PHD finger binding H3K4me3 [[32], [35–37]]. […] Binding of ... || All data were recorded at 298 K on a Bruker Avance III HD 900 MHz spectrometer equipped with a cryoprobe, unless noted otherwise. Sample for assignment verification contained 0.3 mM ^13C- and ^15N-labelled PHD finger of Taf3 (residues 857–924) in NMR buffer (20 mM KPi, pH 7.0, 150 mM KCl, 10 μM ZnCl2, 0.01% NaN3, 10% D2O) in a 5-mm NMR tube. Samples for peptide interaction studies contained 0.19 mM ^13C- and ^15N-labelled PHD in NMR buffer in 3-mm NMR tubes. Lyophilized peptides were dissolved in NMR buffer including 1 mM sodium 3-(trimethylsilyl)tetradeuteriopropanionate (TSP) into 20 mM stoc ... || Overall, we propose that serotonin recognition is governed by edge–face CH–π interactions with either aromatic residues or prolines. Consistent with our proposal, CHD1 contains aromatic residues at positions Y295 and Y406, either of which could orient to engage with H3Q5ser explaining the preference of CHD1 for serotonin (Supplementary Fig. S15C). […]

[4] = target: 13C- and 15N-labelled Taf3-PHD finger (residues 857-924), GST removed by thrombin (Mus musculus) (UniProt Q5HZG4); assay: NMR titration; 0.19 mM 13C,15N-labelled Taf3-PHD, peptide added (30% to 3.6 equiv.); 298 K; 20 mM KPi pH 7.0, 150 mM KCl, 10 μM ZnCl2; koff from TITAN line-shape fits (0%, 50%, 150% peptide), 1:1 model
[5] = target: Taf3-PHD P881E–W894F used for NMR titrations (Mus musculus) (UniProt Q5HZG4); assay: as above
[6] = test system: BPTF; assay: Histone peptide pull-down qMS, HeLa nuclear extract; type: binding, HeLa cells; details: biotinylated H3 (1–13) peptides, FDR 0.1
Procedure: as §1

[7] = target: T2, Taf3-PHD (Mus musculus Taf3 residues 857-924), 13C- and 15N-labelled, GST removed (Mus musculus, UniProt Q5HZG4 857-924, 13C- and 15N-labelled); assay: solution NMR structure; 0.88 mM 13C,15N Taf3-PHD with 0.88 mM H3K4me3Q5ser peptide; 20 mM KPi pH 7.0, 4 mM KCl, 10 uM ZnCl2; NOESY at 293 K; NOE distance restraints imposed with HADDOCK on the structure PDB 2K17; details: both partners purified
T2 construct: Taf3 PHD finger, Mus musculus, residues 857-924; numbering of mouse Taf3 isoform 1, UniProt Q5HZG4; also called Taf3-PHD finger; PHD domain; source: E. coli BL21(DE3) in M9 minimal medium, purified (Glutathione Sepharose, on-column thrombin, Mono Q, Superdex-75); not shown: GST, N-terminal, cleaved
T2 sequence: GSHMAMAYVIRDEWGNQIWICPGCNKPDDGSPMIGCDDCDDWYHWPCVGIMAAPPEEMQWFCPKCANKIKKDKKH

Molecule: C[C@H](N)C(=O)N[C@@H](CCCNC(=N)N)C(=O)N[C@H](C(=O)N[C@@H](CCCCN(C)C)C(=O)N[C@@H](CCC(=O)NCCc1c[nH]c2ccc(O)cc12)C(=O)N[C@H](C(=O)N[C@@H](C)C(=O)N[C@@H](CCCNC(=N)N)C(=O)N[C@@H](CCCCN)C(=O)N[C@@H](CO)C(=O)N[C@H](C(=O)NCC(N)=O)[C@@H](C)O)[C@@H](C)O)[C@@H](C)O [H3K4me2Q5ser]
- koff ([1]; pH 7): 71 ± 2 s⁻¹
- koff ([1]; pH 7, read-out: koff 95% confidence limits): 56 to 90 s⁻¹
- TFIID preference for H3Q5ser peptides [2]: TFIID enrichment was most pronounced

Molecule: H-ARTK(Me)QTARKSTG-NH2 [H3K4me1, H3 tail peptide monomethylated at lysine 4]
- Kd [3]: > 200000 nM

Molecule: H-ARTKQ(ser)TARKSTG-NH2 [H3Q5ser, H3 tail peptide, K4 unmethylated, serotonylated glutamine 5]
- BPTF preference for H3Q5ser peptides [6]: enhanced binding to H3Q5ser compared to the unmodified H3 peptide

B1: H3K4me3Q5ser peptide, non-biotinylated: H-ARTK(Me3)Q(ser)TARKSTG-NH2 (peptide)
peptide: H-ARTK(Me3)Q(serotonyl)TARKSTG-NH2
notes: histone H3 N-terminal tail, residues 1-12 of H3K4me3Q5ser; also called H3K4me3Q5ser ligand; H3 peptide; source: synthetic peptide
- binding result [7]: binds

Second part, led by results:

- koff ([1]; NMR line shape fit (TITAN), 298 K, 20 mM KPi, pH 7.0, 150 mM KCl, 1:1 model, average ± standard error from bootstrap, 100 replicas, read-out: koff): 207 ± 10 s⁻¹
- koff ([1]; NMR line shape fit (TITAN), 298 K, pH 7.0, grid search, read-out: koff 95% confidence limits): 160 to 250 s⁻¹
Molecule: C[C@H](N)C(=O)N[C@@H](CCCNC(=N)N)C(=O)N[C@H](C(=O)N[C@@H](CCCCN(C)C)C(=O)N[C@@H](CCC(N)=O)C(=O)N[C@H](C(=O)N[C@@H](C)C(=O)N[C@@H](CCCNC(=N)N)C(=O)N[C@@H](CCCCN)C(=O)N[C@@H](CO)C(=O)N[C@H](C(=O)NCC(N)=O)[C@@H](C)O)[C@@H](C)O)[C@@H](C)O [H3K4me2]
- Kd [3]: 1700 nM

- koff [4]: 207 s⁻¹
Molecule: H3K4me2 histone H3 tail peptide (non-biotinylated)

- koff [4]: 71 s⁻¹
Molecule: H3K4me2Q5ser histone H3 tail peptide (non-biotinylated)

- koff [4]: 48.8 s⁻¹
- koff [5]: 29.6 s⁻¹
Molecule: H3K4me3 histone H3 tail peptide (non-biotinylated)

- koff [4]: 16.8 s⁻¹
- koff [5]: 24.2 s⁻¹
Molecule: H3K4me3Q5ser histone H3 tail peptide (non-biotinylated)
